The text below walks through data of patent US20230145835A1, “Modulators of Alpha-4-beta-7 Integrin and MAdCAM” (48HD Biopharma Inc., priority 2021, published 2023).

SMILES strings stand for the structures. Numbered stars: 1 amine (or outer) side, 2 acyl side, 3 side chain; on linkers, the order of the positions; unused ones are H or OH. Bridge positions count the residues as written; N and C are the ends. Peptide text beside a SMILES is read from it. X3 = O=C(/C=N/OCCCCCCOc1cc(C[*:2])cc(C[*:3])c1)[*:1]; X1 = O=C(C=NOCCCCCCOc1cc(C[*:2])cc(C[*:3])c1)[*:1] Where only a bound is given, the exact number is not on record here.

This series in a line: in vitro. Conditions: simulated gi fluid. As to the method:
Studies were carried out in simulated intestinal fluid (SIF) to evaluate the intestinal stability of the peptide molecules of the peptides of the instant disclosure. A Fasted State Simulated Intestinal Fluid (FaSSIF) reagent was prepared according to methods known in the art (including addition of the enzyme pancreatin), to which stock peptide solutions were added, incubated, quenched, and analyzed using LCMS/MS.
Percent remaining at each time point was calculated based on the peak area response ratio of test to compound to internal standard. Half-lives were calculated by fitting to a first-order exponential decay equation using GraphPad.
In general, half-life refers to the time in which the quantity being followed falls by half. For `CC(C)C[C@@H]1NC(=O)[C@@H]2CCCN2C(=O)[C@H](Cc2c[nH]c3ccccc23)NC(=O)[C@@H]2CCCN2C(=O)[C@@H]2CSCc3cc(cc(c3)OCCCCCCON=CC(=O)N[C@@H](CCC(=O)O)C(=O)N2)CSC[C@@H](C(=O)O)NC(=O)[C@H](CCC(N)=O)NC(=O)[C@@H]2CCCN2C1=O` [SEQ ID NO. 15] (ECPWPLPQC-OH; linker N-2-9 via X1), the half-life is 1.07 h.

The compound `C[C@@H](O)[C@@H]1NC(=O)[C@H](CC(=O)O)NC(=O)[C@@H]2CCCN2C(=O)[C@H](Cc2ccc(O)cc2)NC(=O)[C@@H]2CSCc3cc(cc(c3)OCCCCCCON=CC(=O)N[C@@H](CC(=O)O)C(=O)N2)CSC[C@@H](C(=O)O)NC(=O)[C@H](Cc2c[nH]cn2)NC(=O)[C@H](Cc2ccc(O)cc2)NC1=O` [SEQ ID NO. 16] (DCYPDTYHC-OH; linker N-2-9 via X1) came in with a half-life of 3.45 h. This half-life is about 3.2-fold higher than that of the compound before.

`N=C(N)NCCC[C@@H]1NC(=O)CNC(=O)[C@H](Cc2ccc(O)cc2)NC(=O)[C@H](Cc2c[nH]c3ccccc23)NC(=O)[C@H](Cc2c[nH]cn2)NC(=O)[C@@H]2CSCc3cc(cc(c3)OCCCCCCON=CC(=O)N[C@@H](CCC(N)=O)C(=O)N2)CSC[C@@H](C(=O)O)NC(=O)[C@H](CO)NC1=O` [SEQ ID NO. 19] (QCHWYGRSC-OH; linker N-2-9 via X1) returned a half-life of more than 8 h.

`CC(C)C[C@@H]1NC(=O)[C@@H]2CSCc3cc(cc(c3)OCCCCCCON=CC(=O)N[C@@H](CCCCN)C(=O)N2)CSC[C@@H](C(=O)O)NC(=O)[C@H]([C@@H](C)O)NC(=O)[C@H](CCC(N)=O)NC(=O)[C@H](CCC(=O)O)NC(=O)[C@H](Cc2c[nH]c3ccccc23)NC(=O)CNC1=O` [SEQ ID NO. 20] (KCLGWEQTC-OH; linker N-2-9 via X1) registered a half-life of 1.36 h.

As to `CSCC[C@@H]1NC(=O)[C@H](CCCNC(=N)N)NC(=O)CNC(=O)[C@H](Cc2ccc(O)cc2)NC(=O)[C@H](Cc2c[nH]c3ccccc23)NC(=O)[C@H](CCC(N)=O)NC(=O)[C@@H]2CSCc3cc(cc(c3)OCCCCCCON=CC(=O)N[C@@H](C)C(=O)N2)CSC[C@@H](C(=O)O)NC1=O` [SEQ ID NO. 21] (ACQWYGRMC-OH; linker N-2-9 via X1), the half-life was 0.328 h.

Compound `CC(C)C[C@@H]1NC(=O)[C@@H]2CSCc3cc(cc(c3)OCCCCCCO/N=C/C(=O)N[C@@H](Cc3ccccc3)C(=O)N2)CSC[C@@H](C(N)=O)NC(=O)[C@H](CO)NC(=O)[C@H](C)NC(=O)[C@H](CCC(=O)O)NC(=O)[C@H](Cc2ccc(O)cc2)NC(=O)CNC1=O` [SEQ ID NO: 22] (FCLGYEASC-NH2; linker N-2-9 via X3) displayed a half-life of 1.2 h. Compared with the last compound, the half-life is about 3.7-fold higher.
